Assay results: patent publication US20190225643A1, “NOVEL NUCLEOSIDE ANALOGS AND USE THEREOF IN THERAPEUTIC TREATMENT” (CORNELL UNIVERSITY, priority 2016, published 2019)

How the values were obtained:
[1] = system: BC3 cells; experiment: Propidium iodide cell cycle flow cytometry; format: cell-based, human; settings: BC3, 1 μM, 24 hours
Protocol: BC3 cells in the exponential phase were seeded at a cell density of 2*10^5 cells/mL. Cells were treated with 0.1% DMSO or with 6-ETI at a final concentration of 1 μM 6-ETI for 24 hrs for cell cycle. Post-treatment, cells were harvested, fixed and stained in Propidium Iodide (Roche). Subsequently, stained cells were analyzed by flow cytometry using BD FACS Aria II SORP cell sorter, and phases of the cell cycle modeled using FlowJo v7.6.5.

[2] = system: DNA synthesis in BC3 cells; experiment: Click-iT EdU DNA synthesis assay, BC3; format: cell-based, human; settings: BC3, 1 μM, 24 hours
Protocol: BC3 and U266 cells were seeded at a density of 0.5 million cells/ml and treated with DMSO only, 1 μM or 1.0 μM 6-ETI for BC3 cells and 0.5 μM 6-ETI for U266 cells for 24 hrs. At 24 hrs post 6-ETI treatment, 0.5 million cells of each of the treated conditions were labeled with 10 μM of EdU for 2 hours then fixed for 30 min using 2% paraformaldehyde supplemented with 0.3M sucrose. Cells were then washed in PBS and perineabilized with 0.2% saponin, PBS with 1% BSA and 0.3M sucrose for 20 min at room temperature. During this incubation time, a click-iT cocktail mix containing, click iT reaction buffer, CuSO4, alexafluor488 and click iT reaction buffer additive was prepared according to the manufacturer's instructions. Cells were washed in PBS after permeabilization and the click-iT cocktail mix was added for 30 min at room temperature in the absence of light. To visualize DNA, cells were counterstained with Hoechst (1:1000) for another 30 min then washed and resuspended in PBS with 1% BSA. 20 μl of the resuspended cells were combined with 20 μl of mounting media Fluoromount-G (Southern biotech) and cells were mounted on Ibidi μ-slides. Cells were imaged using DeltaVision image restoration microscope (Rockefeller center).

[3] = system: KSHV latent proteins LANA, vFLIP and vCyclin; experiment: Western blot of KSHV latent proteins; format: cell-based
Protocol: For all intracellular signaling studies, cell lines were plated at 2*10^5 cells/mL or at indicated densities in RPMI-1640 with 20% FBS, and treated with the stated concentrations of 6-ETI, from 6 to 48 hours. Immunoblotting was performed using the following antibodies: PARP (BD Pharmingen, 556494), LC3B (Cell Signaling, 2775S), phospho-l-listone H2AX.X S139 (Cell Signaling, 2577S), GAPDH (Gene Tex, GTX100118), ADK (Santa Cruz, sc-365470) vFLIP 6/14 antibody was a gift from Mary Collins at University College of London, vCyclin (Abcam, ab12208), LANA (Advanced Biotechnologies, 13-210-100), β-Actin (Sigma A5316), p65 (Cell Signaling C22B4, p50 (Cell Signaling 3035), October-1 (Cell Signaling 4428), p-IκBα (Santa Cruz 3-9 sc-8404), IκBα (Santa Cruz C-21 sc-371), pIKKα/β (ser 176)(Santa Cruz sc-21661), IKKα (Santa Cruz H-744 sc-7218).

[4] = system: BC3NFRen-luc #3 PEL xenograft; experiment: PEL xenograft model (BC3NFRen-luc #3 in NOD-SCID mice); format: in vivo
Protocol: The BC3 in vivo xenograft model was set up as previously described (6). Essentially, ˜4-6 week old male NOD-SCID mice (Jackson Labs Stock# 001303) were injected intraperitoneally (I.P.) with 1*10^7 BC3NFRen-luc #3 cells and followed by in vivo imaging every three days. After imaging on day 5 to confirm establishment of the tumor, the mice were randomized to vehicle, low dose and high dose cohorts, with average tumor burden distributed evenly across the groups. Each dose cohort contained 10 mice. Mice were treated for nine days beginning at randomization with vehicle (PBS-Tween80), low dose 6-ETI (150 mg/kg/day), or high dose 6-ETI (300 mg/kg/day). Mice were treated with 200 mg/kg of the 6-ETI analogs (phospho-6ETI and 6-ETI cAMP) for 9 days. We monitored mice for tumor growth by live imaging and weighing, with sacrifice point determined to be a net gain or loss of 10% body weight over a week. Upon reappearance of refractory tumors, mice were re-treated for a further 9-day interval, and followed for a total of 100 days. Compound effects were assessed on overall survival, progression-free survival and tumor burden by Kaplan-Meier curves generated using GraphPad Prism software, and determined p values by 2-tailed analysis with log-rank tests.

[5] = system: IBL-1 subcutaneous xenograft; experiment: Xenograft model of EBV-associated immunoblastic lymphoma; format: in vivo, mouse; settings: 300 mg/kg/day i.p., 5 treatments over 10 days
Protocol: The in vivo xenograft model of EBV-associated immunoblastic lymphoma was generated by injecting NOD-SCID mice (obtained from Jackson Laboratory Stock# 001303) subcutaneously on the flank region with 5*10^6IBL-1 cells in 200 μl of 50:50 matrigel/cell suspension per mouse. After forming palpable or measurable tumors, mice were randomly grouped (n=3 per group) and treated intraperitoneally with vehicle PBS-Tween80 or 6-ETI (300mg/kg/day) for 5 treatments over the course of 10 days where drug was administered three times a week. Tumor size was assessed by caliper measurement three times a week, and tumor volume (V) was calculated using the formula V=(length×Width^2)/2 where L=length or largest tumor diameter and W=width or the perpendicular tumor diameter. Relative tumor volume was determined according to the formula Vd/V0 where Vd is tumor volume on the day of measurement, and V0 represents the tumor volume on day 0 when the treatment started. At the end of the treatment course, two of the control mice were treated with vehicle PBS-Tween80 or 6-ETI (300 mg/kg) for 24 hr after which the tumors were harvested, fixed in 10% formalin and embedded in paraffin for histological examination and immunohistochemistry.

[6] = system: Primary CD138+ human myeloma cells; experiment: Ex vivo viability of primary multiple myeloma samples; format: cell-based; settings: 24 hours
Protocol: Cell viability assays were performed by plating log-phase cells in RPMI complete media with 20% FBS at 1*10^5 cells/mL, with concentrations of 6-ETI or phospho-6-ETI ranging from 0.1 nM to 100 μM. ATP content at 24, 48 and 72 hours post-treatment was measured by the CellTiter-Glo kit (Promega, Madison, Wis.), or by Trypan blue assay as indicated. The LC50 for 6-ETI in each cell line was determined using online EC50 software at changbioscience.com or using GraphPad Prism to determine the LC50 for 6-ETI, phospho-6-ETI and nucleoside analogs in MM cell lines and primary MM patient samples.
Bone marrow specimens were obtained from multiple myeloma patients at the New York-Presbyterian Hospital under informed consent as part of an Institutional Review Board-approved study in accordance with the Declaration of Helsinki. Primary CD138^+ human myelorna cells were isolated by Ficoll-Hypaque density gradient centrifugation. The CD138^+ bone marrow myeloma cells were then enriched from this fraction to >95% purity using an automated MACS CD138 MicroBeads system (Miltenyi Biotechnology, Inc., Auburn, Calif.). […] PBLs were harvested from normal blood using Ficoll-Paque (Sigma-Aldrich) as described previously. Cells were plated in RPMI-1640 supplemented with 20% FBS.

CCSc1ncnc2c1ncn2[C@@H]1O[C@H](CO)C(O)[C@@H]1O (stereo partly drawn) [Compound 6-ETI, 6-ethylthioinosine]
cell cycle distribution [1]: reproducible increase in the percentage of cells in S-phase
DNA synthesis (EdU incorporation) [2]: complete inhibition of DNA synthesis
latent viral protein expression [3]: no reduction was seen in latent viral protein expression
toxicities from treatment ([4]; 150 or 300 mg/kg/day): no obvious toxicities
tumor response by in vivo luciferase imaging ([4]; 150 or 300 mg/kg/day for 9 days, within three days of treatment): striking and immediate regression of the implanted xenograft
progression-free survival ([4]; 150 or 300 mg/kg/day, p<0.0001, 100 days): startling protective effect
overall survival ([4]; low dose and high dose versus untreated): significant prolonged overall survival
tumor growth [5]: reduced the rate of tumor growth
sensitivity ex vivo [6]: showed sensitivity
